Tests used:
THP-1 macrophages = assay: Phagocytosis of IgG-opsonized sheep RBCs by THP-1 macrophages; type: cell-based, human
Description: FIG. 5, comprising FIGS. 5A-5D, illustrates human macrophages and monocytes inhibited by human-CD47. FIG. 5A depicts DIC images of THP-1 phagocytes plus CD47-blocked, IgG-opsonized human-RBC, using F(ab′)2 made from monoclonal B6H12. The scale bars are […]. FIG. 5B depicts human peripheral blood monocyte plus CD47-blocked human-RBC following lysis after 45 min of phagocytosis: PKH26 labeled human RBC are depicted in the right hand panel: Lysed RBC labeled with FITC-anti-Fc indicates the cell is not internalized. Human-RBC and Sheep-RBC were phagocytosed by THP-1 cells in FIG. 5C, or human monocytes in FIG. 5D, depicting phagocytosis increases with opsonization. Inset depicts blebbistatin treatment of ShRBC showing decrease in phagocytosis. Phagocytosis is measured as the ratio of internalized RBCs per phagocyte with 200 phagocytes counted in triplicate experiments (±SEM).
FIG. 7 illustrates that myosin increases the efficiency of phagocytosis. Phagocytosis of IgG-opsonized sheep-RBC were measured as a ratio of internalized RBCs per phagocyte with 200 phagocytes counted in triplicate experiments (±SEM). The level of NMM IIA activity is normalized to WT levels in THP-1, with relative levels of knockdown or overexpression quantified by immunofluorescence and Western blot. Results for phagocytosis of the IgG-opsonized sheep-RBC were fit to a line; where the intercept approximates the result for human-RBC. The inset bar graph depicts blebbistatin inhibition of ShRBC phagocytosis by GFP-NMMIIA expressing WT THP-1.
Phagocytosis by the human-derived THP-1 macrophages of IgG-opsonized RBCs was studied by imaging in DIC microscopy. […] RBC membranes were prelabeled with PKH26, and non-engulfed RBCs were labeled with a fluorescein-labeled antibody against the Fc of the IgG-opsonin. […] A small number of human RBCs were engulfed for either type of phagocyte. […]
In light of the myosin differences seen by fluorescence at the various synapses (FIGS. 2-4), the effect of blebbistatin-inhibited myosin on phagocytosis was studied. […]

[1] = test system: non-muscle myosin IIA at the phagocytic synapse of THP-1 macrophages; assay: Protein localization to the phagocytic synapse (immunofluorescence); type: cell-based, human; conditions: blebbistatin 50 μM, 10 min pre-incubation
Description: FIG. 4, comprising FIGS. 4A-4B, illustrates CD47 inhibiting myosin localization as similar to blebbistatin. Phagocytic synapses of THP-1 macrophages with IgG-opsonized sheep- or human-RBC (37° C., 10 min) after pre-incubation with blebbistatin (50 μM, 10 min). DMSO was used as a control. FIG. 4A depicts cells fixed and immunostained for non-muscle myosin IIA, F-actin, and Paxillin-Y^118. The scale bars are […]. FIG. 4B depicts quantitation of protein localization to the phagocytic synapse relative to the cytoplasmic intensity set at 1.0 (n=5 cells, ±SD). For cytoskeletal involvement at the phagocytic synapse, streptavidin beads opsonized with rabbit anti-streptavidin FITC. Opsonized beads of different sizes were added to THP-1 cells, PMA treated and immediately placed at 4° C. for 10 min to synchronize phagocytosis. […] For studies involving blebbistatin (EMD Biosciences), macrophages were treated for 10 min at 4° C. prior to temperature increase to 37° C. or for 45 min and 37° C. Macrophages treated with DMSO were used to verify no solvent effects. Immunostaining was performed by permeabilization with 0.1% Triton X-100 in PBS for 20 min before blocking for 1 h with 5% BSA in PBS. Staining with primary antibodies was carried out for 1 h at room temperature in PBS. […] Samples were analyzed by differential interference contrast (DIC) and fluorescence microscopy. […]

Compound: Cc1ccc2c(c1)C(=O)C1(O)CCN(c3ccccc3)C1=N2 (stereo not shown) [blebbistatin]
- inhibition of ShRBC phagocytosis by GFP-NMM IIA expressing THP-1 (THP-1 macrophages; 5 μM blebbistatin): ~50%
- engulfment of sheep RBCs by THP-1 macrophages (THP-1 macrophages; blebbistatin treatment, FIG. 5C): inhibited by blebbistatin to an extent similar to that of CD47 on human RBCs
- Ki (THP-1 macrophages; engulfment of sheep RBCs by THP-1 macrophages, dose-response (not shown), read-out: Ki-blebb for blebbistatin inhibition of phagocytosis): 5 µM
- enrichment of NMM IIA at synaptic contacts with sheep RBC targets [1]: inhibited enrichment of NMM IIA

— patent US20110105380A1, “Protection of Nano-Scale Particles from Immune Cell Uptake” (THE TRUSTEES OF THE UNIVERSITY OF PENNSYLVANIA, priority 2009, published 2011)
